According to patent publication US5527781A, “4-O-(aminoglycosyl)- or 4,6-di-O-(aminoglycosyl)-2,5-dideoxy-5,5-difluorostreptamine derivatives” (Zaidan Hojin Biseibutsu Kagaku Kenkyu Kai, priority 1990, dated 1996):
In brackets after ≈: the same amount, converted by molar mass. Where two headings read alike, the source gives them in different places.

Columns and labels:
Escherichia coli K-12 R5 = test: microbe, parasite or virus in culture; type: cell-based; conditions: K12R5
[1] = system: Staphylococcus aureus 209P; test: MIC, standard serial dilution method; type: cell-based; conditions: Mueller-Hinton agar, 37° C
Bacillus subtilis PCI219 = test: MIC, standard serial dilution method; type: cell-based; conditions: Mueller-Hinton agar, 37° C
Mycobacterium 607 = test: MIC, standard serial dilution method; type: cell-based; conditions: Mueller-Hinton agar, 37° C
[2] = system: Escherichia coli K-12 LA 290 R55; test: microbe, parasite or virus in culture; type: cell-based; conditions: K12LA290R55
[3] = system: Escherichia coli JR66/W677; test: microbe, parasite or virus in culture; type: cell-based; conditions: resistance mechanism APH(3')-II, ANT(2"), Mueller-Hinton agar, 37° C
Providencia sp. Pv 16 = test: MIC, standard serial dilution method; type: cell-based; conditions: SP.PV16, resistance mechanism AAC(2'), Mueller-Hinton agar, 37° C
[4] = system: Staphylococcus aureus Ap01; test: MIC, standard serial dilution method; type: cell-based; conditions: resistance mechanism ANT(4'), Mueller-Hinton agar, 37° C
[5] = system: Escherichia coli K-12 ML 1629; test: microbe, parasite or virus in culture; type: cell-based; conditions: K12ML1629
Serratia marcescens = test: MIC, standard serial dilution method; type: cell-based; conditions: Mueller-Hinton agar, 37° C
Escherichia coli JR225 = test: microbe, parasite or virus in culture; type: cell-based; conditions: resistance mechanism AAC(3), Mueller-Hinton agar, 37° C
in vivo = conditions: mouse, iv, pH 7
From the text: Further, in order to estimate acute toxicity of the compound of the general formula (I) according to this invention, some examples of the compounds of this invention were independently dissolved in water to prepare aqueous solutions (as adjusted to pH 7 by addition of hydrochloric acid). […] The tested compounds of this invention are expressed by the same abbreviations as in Table 1. […] The comparative compounds as tested are also expressed by the same abbreviations as in Table 1.

[6] = system: Klebsiella pneumoniae 22#3038; test: MIC, standard serial dilution method; type: cell-based; conditions: resistance mechanism APH(3')-II, ANT(2"), Mueller-Hinton agar, 37° C
[7] = system: Corynebacterium bovis 1810; test: MIC, standard serial dilution method; type: cell-based; conditions: Mueller-Hinton agar, 37° C
[8] = system: Pseudomonas aeruginosa GN 315; test: MIC, standard serial dilution method; type: cell-based; conditions: GN315; Pseudomonas aeruginosa GN 315; resistance mechanism AAC(6'); Mueller-Hinton agar, 37° C; read-out: MIC
Escherichia coli K-12 = test: MIC, standard serial dilution method; type: cell-based; conditions: K12
[9] = system: Pseudomonas aeruginosa A3; test: MIC, standard serial dilution method; type: cell-based; conditions: Mueller-Hinton agar, 37° C
Proteus rettgeri GN 311 = test: MIC, standard serial dilution method; type: cell-based; conditions: Providencia rettgeri, GN311
[10] = Escherichia coli K-12 R5, resistance mechanism AAC(6'), Mueller-Hinton agar, 37° C
[11] = Escherichia coli K-12 LA 290 R55, resistance mechanism ANT(2"), Mueller-Hinton agar, 37° C
[12] = Proteus rettgeri GN 311, Mueller-Hinton agar, 37° C, read-out: MIC
[13] = Escherichia coli K-12, Mueller-Hinton agar, 37° C, read-out: MIC
[14] = Escherichia coli K-12 ML 1629, resistance mechanism APH(3')-I, Mueller-Hinton agar, 37° C, read-out: MIC

SMILES: CN[C@@H]1[C@@H](O)[C@@H](O[C@H]2[C@H](N)C[C@H](N)[C@@H](O[C@H]3O[C@H]([C@@H](C)N)CC[C@H]3N)C2(F)F)OC[C@]1(C)O [Compound 5FF-Genta-C2, 5-deoxy-5,5-difluorogentamicin C2]
- MIC (Escherichia coli K-12 R5; [10]): 1.56 µg/mL (≈ 3.23 µM)
- MIC [1]: 0.78 µg/mL (≈ 1.61 µM)
- MIC (Bacillus subtilis PCI219): 0.2 µg/mL (≈ 0.414 µM)
- MIC (Mycobacterium 607): 0.78 µg/mL (≈ 1.61 µM)
- MIC [2, 11]: 3.12 µg/mL (≈ 6.45 µM)
- MIC [3]: 3.12 µg/mL (≈ 6.45 µM)
- MIC (Providencia sp. Pv 16): 6.25 µg/mL (≈ 12.9 µM)
- MIC [4]: 6.25 µg/mL (≈ 12.9 µM)
- MIC ([5]; Escherichia coli): 0.78 µg/mL (≈ 1.61 µM)
- MIC (Serratia marcescens): 0.78 µg/mL (≈ 1.61 µM)
- MIC (Escherichia coli JR225): 6.25 µg/mL (≈ 12.9 µM)
- LD50 (in vivo): ~230 mg/kg
- MIC [6]: 1.56 µg/mL (≈ 3.23 µM)
- MIC [7]: 0.78 µg/mL (≈ 1.61 µM)
- MIC [8]: 25 µg/mL (≈ 51.7 µM)
- MIC (Escherichia coli K-12; Escherichia coli): 0.78 µg/mL (≈ 1.61 µM)
- MIC [9]: 1.56 µg/mL (≈ 3.23 µM)
- MIC (Proteus rettgeri GN 311; [12]): 0.78 µg/mL (≈ 1.61 µM)

SMILES: NC[C@H]1O[C@H](O[C@@H]2[C@@H](N)C[C@@H](N)[C@H](O[C@H]3O[C@H](CO)[C@@H](O)[C@H](N)[C@H]3O)C2(F)F)[C@H](N)C[C@@H]1O [Compound 5FF-TOB, 5-deoxy-5,5-difluorotobramycin]
- MIC (Escherichia coli K-12 R5; [10]): 25 µg/mL (≈ 51.3 µM)
- MIC [1]: 0.39 µg/mL (≈ 0.8 µM)
- MIC (Bacillus subtilis PCI219): 0.39 µg/mL (≈ 0.8 µM)
- MIC (Mycobacterium 607): 0.39 µg/mL (≈ 0.8 µM)
- MIC ([2]; Escherichia coli): 0.78 µg/mL (≈ 1.6 µM)
- MIC [3]: 1.56 µg/mL (≈ 3.2 µM)
- MIC (Providencia sp. Pv 16): 12.5 µg/mL (≈ 25.6 µM)
- MIC [4]: 25 µg/mL (≈ 51.3 µM)
- MIC ([5]; Escherichia coli): 0.78 µg/mL (≈ 1.6 µM)
- MIC (Serratia marcescens): 3.12 µg/mL (≈ 6.4 µM)
- MIC (Escherichia coli JR225): 0.39 µg/mL (≈ 0.8 µM)
- LD50 (in vivo): 260 mg/kg
- MIC [6]: 0.78 µg/mL (≈ 1.6 µM)
- MIC [7]: 1.56 µg/mL (≈ 3.2 µM)
- MIC [8]: 100 µg/mL (≈ 205 µM)
- MIC (Escherichia coli K-12; [13]): 0.39 µg/mL (≈ 0.8 µM)
- MIC [9]: < 0.2 µg/mL
- MIC (Proteus rettgeri GN 311; [12]): < 0.2 µg/mL

SMILES: NCC[C@H](O)C(=O)N[C@@H]1C[C@H](N)[C@@H](O[C@H]2O[C@H](CN)[C@@H](O)C[C@H]2N)C(F)(F)[C@H]1O[C@H]1O[C@H](CO)[C@@H](O)[C@H](N)[C@H]1O [Compound 5FF-TOB-AHB, 1-N-[(S)-4-amino-2-hydroxybutyryl]-5-deoxy-5,5-difluorotobramycin]
- MIC (Escherichia coli K-12 R5; [10]): 3.12 µg/mL (≈ 5.3 µM)
- MIC [1]: 0.39 µg/mL (≈ 0.663 µM)
- MIC (Bacillus subtilis PCI219): < 0.2 µg/mL
- MIC (Mycobacterium 607): 0.39 µg/mL (≈ 0.663 µM)
- MIC [2, 11]: < 0.2 µg/mL
- MIC [3]: 0.39 µg/mL (≈ 0.663 µM)
- MIC (Providencia sp. Pv 16): 0.78 µg/mL (≈ 1.33 µM)
- MIC [4]: 3.12 µg/mL (≈ 5.3 µM)
- MIC [5, 14]: 0.39 µg/mL (≈ 0.663 µM)
- MIC (Serratia marcescens): 1.56 µg/mL (≈ 2.65 µM)
- MIC (Escherichia coli JR225): < 0.2 µg/mL
- LD50 (in vivo): > 300 mg/kg
- MIC [6]: 0.78 µg/mL (≈ 1.33 µM)
- MIC [7]: < 0.2 µg/mL
- MIC [8]: 6.25 µg/mL (≈ 10.6 µM)
- MIC (Escherichia coli K-12; [13]): < 0.2 µg/mL
- MIC [9]: 0.78 µg/mL (≈ 1.33 µM)
- MIC (Proteus rettgeri GN 311; [12]): 0.39 µg/mL (≈ 0.663 µM)

SMILES: NCC[C@H](O)C(=O)N[C@@H]1C[C@H](N)[C@@H](O[C@H]2O[C@H](CN)[C@@H](O)[C@H](O)[C@H]2O)C(F)(F)[C@H]1O[C@H]1O[C@H](CO)[C@@H](O)[C@H](N)[C@H]1O [Compound 5FF-amikacin, 1-N-[(S)-4-amino-2-hydroxybutyryl]-5-deoxy-5,5-difluorokanamycin A]
- MIC (Escherichia coli K-12 R5; [10]): 25 µg/mL (≈ 41.3 µM)
- MIC [1]: 3.12 µg/mL (≈ 5.15 µM)
- MIC (Bacillus subtilis PCI219): 1.56 µg/mL (≈ 2.58 µM)
- MIC (Mycobacterium 607): 3.12 µg/mL (≈ 5.15 µM)
- MIC [2, 11]: 3.12 µg/mL (≈ 5.15 µM)
- MIC [3]: 3.12 µg/mL (≈ 5.15 µM)
- MIC (Providencia sp. Pv 16): 3.12 µg/mL (≈ 5.15 µM)
- MIC [4]: > 100 µg/mL
- MIC [5, 14]: 3.12 µg/mL (≈ 5.15 µM)
- MIC (Serratia marcescens): 6.25 µg/mL (≈ 10.3 µM)
- MIC (Escherichia coli JR225): 0.39 µg/mL (≈ 0.644 µM)
- LD50 (in vivo): > 300 mg/kg
- MIC [6]: 6.25 µg/mL (≈ 10.3 µM)
- MIC [7]: 3.12 µg/mL (≈ 5.15 µM)
- MIC [8]: > 100 µg/mL
- MIC (Escherichia coli K-12; [13]): 1.56 µg/mL (≈ 2.58 µM)
- MIC [9]: 3.12 µg/mL (≈ 5.15 µM)
- MIC (Proteus rettgeri GN 311; [12]): 1.56 µg/mL (≈ 2.58 µM)

SMILES: CN[C@@H]1[C@@H](O)[C@@H](O[C@@H]2[C@@H](O)[C@H](O[C@H]3O[C@H]([C@@H](C)NC)CC[C@H]3N)[C@@H](N)C[C@H]2N)OC[C@]1(C)O [Genta-C1, gentamicin C1, reference compound]
- MIC (Escherichia coli K-12 R5; Escherichia coli): 0.78 µg/mL (≈ 1.63 µM)
- MIC [1]: < 0.2 µg/mL
- MIC (Bacillus subtilis PCI219): < 0.2 µg/mL
- MIC (Mycobacterium 607): 3.12 µg/mL (≈ 6.53 µM)
- MIC [2, 11]: 12.5 µg/mL (≈ 26.2 µM)
- MIC [3]: 12.5 µg/mL (≈ 26.2 µM)
- MIC (Providencia sp. Pv 16): 25 µg/mL (≈ 52.3 µM)
- MIC [4]: 0.78 µg/mL (≈ 1.63 µM)
- MIC [5, 14]: 0.39 µg/mL (≈ 0.817 µM)
- MIC (Serratia marcescens): 0.78 µg/mL (≈ 1.63 µM)
- MIC (Escherichia coli JR225): 25 µg/mL (≈ 52.3 µM)
- LD50 (in vivo): ~70 mg/kg
- MIC [6]: 12.5 µg/mL (≈ 26.2 µM)
- MIC [7]: 0.39 µg/mL (≈ 0.817 µM)
- MIC [8]: 6.25 µg/mL (≈ 13.1 µM)
- MIC (Escherichia coli K-12; [13]): 0.2 µg/mL (≈ 0.419 µM)
- MIC [9]: 0.78 µg/mL (≈ 1.63 µM)
- MIC (Proteus rettgeri GN 311): 0.78 µg/mL (≈ 1.63 µM)

SMILES: NC[C@H]1O[C@H](O[C@H]2[C@H](O)[C@@H](O[C@H]3O[C@H](CO)[C@@H](O)[C@H](N)[C@H]3O)[C@H](N)C[C@@H]2N)[C@H](O)[C@@H](O)[C@@H]1O [KMA, kanamycin A, reference compound]
- MIC (Escherichia coli K-12 R5; [10]): > 100 µg/mL
- MIC [1]: 1.56 µg/mL (≈ 3.22 µM)
- MIC (Bacillus subtilis PCI219): 0.78 µg/mL (≈ 1.61 µM)
- MIC (Mycobacterium 607): 6.25 µg/mL (≈ 12.9 µM)
- MIC [2, 11]: 50 µg/mL (≈ 103 µM)
- MIC [3]: > 100 µg/mL
- MIC (Providencia sp. Pv 16): 3.12 µg/mL (≈ 6.44 µM)
- MIC [4]: 25 µg/mL (≈ 51.6 µM)
- MIC [5, 14]: > 100 µg/mL
- MIC (Serratia marcescens): 12.5 µg/mL (≈ 25.8 µM)
- MIC (Escherichia coli JR225): 3.12 µg/mL (≈ 6.44 µM)
- MIC [6]: > 100 µg/mL
- MIC [7]: 12.5 µg/mL (≈ 25.8 µM)
- MIC [8]: > 100 µg/mL
- MIC (Escherichia coli K-12; Escherichia coli): 0.78 µg/mL (≈ 1.61 µM)
- MIC [9]: 6.25 µg/mL (≈ 12.9 µM)
- MIC (Proteus rettgeri GN 311; [12]): 0.78 µg/mL (≈ 1.61 µM)
